Assay results from patent US20100190737A1, “COMPOSITIONS COMPRISING INOSINE AND OROTIC ACID AND METHODS OF USE THEREOF FOR THE TREATMENT OF CERTAIN HEART CONDITIONS AND ENHANCEMENT OF WORK CAPACITY” (NUTRITIONAL RESEARCH GROUP LLC, priority 2009, published 2010).
Values joined by “and” are separate entries in the source; they are usually repeats but may differ in a detail not shown here. Equal entries are not always repeated.

Tests used:
[1] = system: rats with experimental aortic stenosis; assay: Short term (7 day) experimental aortic stenosis: heart weight and swimming to exhaustion; type: in vivo, rat; conditions: EAS rats; for Heart Weight: intragastric daily
Description: There are two 7 day experiments in this portion of the study; a preliminary 7 day study with 54 rats in 9 groups (6 rats per group) to determine optimal dosage levels for the separate inosine or potassium orotate ingredients for farther experimentation by determination of maximal heart weight development and work capacity; and then a study with 30 rats in 5 groups (6 rats per group) using the optimal single ingredient dosage levels for comparison with the results of a composition of the ingredients. All compounds were administered intragastrically through a tube after being dissolved in approximately 1 ml of water.
A single control group received a sham operation, while the rest of the groups received experimental aortic stenosis (“EAS”) operations (all according to Beznak in Journal Physiol. (Lond.) 120.23P, 1953 as modified by Kogan, Bull eksper. Biol. Med., 26:112, 1961 and then the other 13 groups received various treatments and dosages of inosine or potassium orotate or a composition of the two ingredients after the optimal inosine and potassium orotate dosages were determined. All animals were tested at the beginning and end of the experiment for swimming to exhaustion times with a 7.5% body weight load attached to their tails.
Sach compound, i.e., inosine and potassium orotate, was administered at different doses and the level of heart hypertrophy and work capacity was observed. Each of the compounds was evaluated in four doses: 12.5 mg/kg, 25 mg/kg, 50 mg/kg and 100 mg/kg body weight. Six animals were used in each group for inosine [4 groups] and potassium orotate [4 groups] plus the one control group (sham operated, no treatment); 54 animals in total.
Thirty white rats were divided into 5 groups (6 animals in each group). Group I was a sham-operated control group, Group II animals with experimental aortic stenosis but were untreated, Groups III, IV & V animals, all with experimental aortic stenosis received by an intragastric tube each day, either inosine (25 mg/kg body weight), potassium orotate (50 mg/kg body weight) or an composition of inosine (25 mg/kg body weight) plus potassium orotate (50 mg/kg body weight), respectively.

[2] = system: rats with experimental aortic stenosis; assay: Long term (12 month) experimental aortic stenosis; type: in vivo, rat; conditions: for Mortality %: 12 month study, 15 rats per group, inosine 25, potassium orotate 50 mg/kg/day from day 45 for 10.5 months, untreated stenosis 47
Description: A 12 month study using 60 white unbred male rats with initial body weights of 110-120 g, divided into four experimental groups, each group with 15 rats. Group I included intact animals (controls); Group II—rats with experimental aortic stenosis (untreated stenosed controls); Group III rats with experimental aortic stenosis given inosine in doses of 25 mg/kg/day; and Group IV rats with experimental aortic stenosis given both inosine and an orotic acid (in the instant study potassium orotate was used, however, as the orotic acid comprises 93-95% percent of any of the orotates, the results achieved are indicative of usage of any of the orotates including the potassium orotate used herein) combination in doses of 25 and 50 mg/kg/day, respectively, intragastrically, using a metal curved tube, beginning from the 45th day after the creation date of the abdominal aortic stenosis, and continuing for 10.5 months. The abdominal aortic stenosis was produced by the method of Beznak, referred to hereinabove, modified by Kogan, referred to above.
During the experimental period the animals in all four groups had regular measurements (recordings) of body weight and the 3-standard lead EKG-ms and 5-plane pericardial vector-cardiograms (VCG). At the beginning and end of the experimental period they also underwent tests for the endurance of a single, dosed physical exercise—forced swimming in a pool at 28-30° C., until maximally exhausted. Specifically, an animal had fixed to its tail a lead weight weighing approximately 7.5% percent of the animal's body weight became submerged due to the inability to continue swimming. At the end of the experimental period, the animals were sacrificed, and their hearts, thymuses, livers, adrenals and thyroids were weighed and their relative weights per 100 g body weight were calculated and recorded. Histological figures of sectioned cardiac muscle stained with hematoxilin-eosin were prepared by Van Hison's technique and examined for any attendant alterations in the normal histology of the heart. During the experiment, (untreated aortic stenosis) 8 of the 15 rats in Group II died, while in Group III (treated stenosis w/inosine) and Group IV (treated stenosis w/inosine and potassium orotate)—only 3 rats in each group died. […] The observed time period wherein the rats could swim were as follows: Groups I animals 45±2.0 minutes; Group II 6.5±2.1 minutes; Group III 16±1.2 minutes; and Group IV 32±4 minutes, respectively. Thus, the group receiving the combination of inosine and potassium orotate performed far better than Group II (untreated stenosis) and had doubled the work capacity of Group III (treated with inosine only). The relative weight of the heart in animals in Groups II, III and IV was higher than in Group I (control group) by 67%, 36% and 56%, respectively. (See Tables 2 A-B). The hearts of Group II animals were in the state of eccentric hypertrophy which explains the higher weight (see FIG. 5). The left ventricular wall in the animals of Group II was 8% thinner than in rats of Group I as a result of the eccentric condition. In rats of Groups III and IV the left ventricular wall was 30% and 46% thicker, respectively, than the rats in group I and they were all in the state of concentric heart hypertrophy.

[3] = seventh day, inosine 25 mg/kg BW, potassium orotate 50 mg/kg BW, alone or together
[4] = seventh day, inosine 25 mg/kg BW, potassium orotate 50 mg/kg BW, alone or together, listed as Inosine

SMILES: OC[C@H]1O[C@@H](n2cnc3c(O)ncnc32)[C@H](O)[C@@H]1O [inosine]
- swimming time ([1]; day 7, 12.5 mg/kg intragastrically, EAS control 15±5.0, sham 62±5.0): 18 ± 2.0 min
- swimming time ([1]; day 7, 25 mg/kg): 28 ± 3.0 min
- swimming time ([1]; day 7, 50 mg/kg): 29 ± 3.0 min
- swimming time ([1]; day 7, 100 mg/kg): 27.0 ± 3.0 min
- relative heart weight ([1]; seventh day, 12.5 mg/kg, EAS control 400±8.9, sham 300±5.0): 410±9.0 mg/100 g. body weight
- relative heart weight ([1]; seventh day, 25 mg/kg): 440±12 mg/100 g. body weight
- relative heart weight ([1]; seventh day, 50 mg/kg): 442±12 mg/100 g. body weight
- relative heart weight ([1]; seventh day, 100 mg/kg): 440±10 mg/100 g. body weight
- swimming time [1, 3]: 31 ± 3.0 min
- Heart Weight [1, 3]: 450±12 mg/100 gr BW
- Heart Weight [1, 4]: 450 ± 12 mg/100 gr BW
- swimming time [1, 4]: 31 ± 3.0 min
- EKG QRS 1½ months ([2]; 1½ months (before treatment)): 0.021 ± 0.004 s
- EKG R Wave Voltage 1½ months ([2]; 1½ months (before treatment)): 0.38 ± 0.05 mV
- EKG Stroke Index 1½ months ([2]; 1½ months (before treatment)): 47 ± 10%
- Heart Rate 1½ months ([2]; 1½ months (before treatment)): 410 ± 11 beats/min
- T Wave Voltage 1½ months ([2]; 1½ months (before treatment)): 0.21 ± 0.01 mV
- Mortality % [2]: 20%
- Mortality % ([2]; listed as Inosine): 20%
- EKG QRS 12 months ([2]; 12 months): 0.022 ± 0.001 s
- EKG R Wave Voltage 12 months ([2]; 12 months): 0.9 ± 0.09 mV
- EKG Stroke Index 12 months ([2]; 12 months): 34 ± 1.2%
- Heart Rate 12 months ([2]; 12 months): 420 ± 16 beats/min
- T Wave Voltage 12 months ([2]; 12 months): 0.29 ± 0.05 mV
- left ventricular wall thicker than in Group I ([2]; 12 months): 30%
- relative weight of the heart higher than in Group I (control) ([2]; 12 months): 36%
- QRS-T angle 120° to 180° ([2]; 12 months after surgery): 5
- Relative weight of Heart ([2]; 12 months after surgery): 387 ± 9.5 mg/100 g
- Thickness of Left Ventricular Wall ([2]; 12 months after surgery): 3.9 ± 0.14 mm
- VGC QRS Amplitude ([2]; 12 months after surgery): 3.2 ± 0.12 mV
- VGC QRS Area ([2]; 12 months after surgery): 8.3 ± 1.1 cm^2
- VGC QRS Not closed ([2]; 12 months after surgery): 58%
- VGC T Amplitude ([2]; 12 months after surgery): 0.6 ± 0.01 mV
- Working capacity (min) 1½ months ([2]; forced swimming, 1½ months after surgery (treatment began on the 45th day)): 43 ± 4.6 min
- Working capacity (min) 12 months ([2]; forced swimming, 12 months after surgery, 10.5 months of treatment): 16 ± 1.2 min and 16 ± 1.3 min
- appearance of the myocardium, light micrographs (FIG. 6) ([2]; haemotoxylin-eosin stained sections): normal appearance
- rats that died during the experiment ([2]; of 15 rats per group, untreated stenosis 8): 3 rats
- development of cardiac eccentric hypertrophy ([2]; prolonged administration): prevented development of cardiac eccentric hypertrophy
- ultrastructure of left ventricular myocardium, mitochondria (FIG. 7) ([2]; rat, in vivo): normal sized mitochondria
- critical heart weight enhanced by ([2]; versus critical weight of rats with the same body weight): 16%
